Reference: the CheMixHub viscosity set

Assay: xn = mol fraction of the nth substance listed

CN(C)c1ccccc1 + CCC(C)O
303.15 K, 101 kPa
Details	viscosity [mPa·s]
x1 = 0.0452	2.686
x1 = 0.0845	2.638
x1 = 0.1321	2.582
x1 = 0.1893	2.512
x1 = 0.2452	2.442
x1 = 0.2756	2.402
x1 = 0.3065	2.362
x1 = 0.3655	2.279
x1 = 0.4292	2.183
x1 = 0.4906	2.086
x1 = 0.6021	1.893
x1 = 0.7323	1.65
x1 = 0.8911	1.353

C=CC#N + CCO
viscosity [mPa·s], 101.33 kPa
Details	x1 = 0.1008	x1 = 0.1009	x1 = 0.2017	x1 = 0.3022	x1 = 0.403	x1 = 0.5025	x1 = 0.6044	x1 = 0.7032	x1 = 0.8006	x1 = 0.8993
298.15 K	–	0.859	0.704	0.593	0.513	0.458	0.415	0.384	0.363	0.348
303.15 K	–	0.787	0.648	0.551	0.48	0.431	0.392	0.364	0.345	0.332
308.15 K	0.724	–	0.602	0.513	0.451	0.405	0.371	0.347	0.329	0.318

CCCCN(CCCC)CCCC + CC(C)CC(C)(C)C
viscosity [mPa·s], 101 kPa
Details	x1 = 0.1106	x1 = 0.2474	x1 = 0.3947	x1 = 0.4958	x1 = 0.5982	x1 = 0.793	x1 = 0.8938
303.15 K	0.505	0.5839	0.6783	0.7486	0.8256	0.9844	1.072
313.15 K	0.4465	0.5109	0.5884	0.6462	0.7101	0.8423	0.9171

CCCCN(CCCC)CCCC + CCCCCCCCCCO
viscosity [mPa·s], 101.3 kPa
Details	x1 = 0.0952	x1 = 0.1901	x1 = 0.2866	x1 = 0.3816	x1 = 0.5195	x1 = 0.6185	x1 = 0.7198	x1 = 0.8029	x1 = 0.9006
303.15 K	7.192	5.845	4.754	3.874	2.91	2.358	1.928	1.658	1.378
313.15 K	5.659	4.596	3.721	3.026	2.288	1.892	1.586	1.388	1.175

CN(C)c1ccccc1 + CC(C)(C)O
303.15 K, 101 kPa
Details	viscosity [mPa·s]
x1 = 0.0534	3.315
x1 = 0.1054	3.242
x1 = 0.1689	3.141
x1 = 0.2256	3.041
x1 = 0.2958	2.907
x1 = 0.3612	2.775
x1 = 0.4502	2.587
x1 = 0.5246	2.423
x1 = 0.6589	2.112
x1 = 0.7421	1.908
x1 = 0.8046	1.747
x1 = 0.8645	1.584
x1 = 0.9472	1.34

C=CC#N + CN(C)C=O
303.15 K, 101.3 kPa
Details	viscosity [mPa·s]
x1 = 0.099	0.7313
x1 = 0.2027	0.6911
x1 = 0.2977	0.6444
x1 = 0.4005	0.5998
x1 = 0.497	0.5516
x1 = 0.5957	0.5028
x1 = 0.6984	0.4518
x1 = 0.798	0.4041
x1 = 0.895	0.3581

C=CC#N + COC(C)=O
viscosity [mPa·s]
Details	298.15 K	303.15 K	308.15 K
101.3 kPa, x1 = 0.1018	–	0.3427	–
101.3 kPa, x1 = 0.1999	–	0.3428	–
101.3 kPa, x1 = 0.3006	–	0.3407	–
101.3 kPa, x1 = 0.4001	–	0.338	–
101.3 kPa, x1 = 0.4946	–	0.3357	–
101.3 kPa, x1 = 0.6012	–	0.3319	–
101.3 kPa, x1 = 0.6955	–	0.3283	–
101.3 kPa, x1 = 0.8014	–	0.3242	–
101.3 kPa, x1 = 0.896	–	0.3198	–
101.33 kPa, x1 = 0.0617	0.389	0.371	0.354
101.33 kPa, x1 = 0.1961	0.385	0.367	0.351
101.33 kPa, x1 = 0.3042	0.38	0.362	0.349
101.33 kPa, x1 = 0.4041	0.375	0.357	0.345
101.33 kPa, x1 = 0.5024	0.37	0.353	0.34
101.33 kPa, x1 = 0.6004	0.365	0.348	0.335
101.33 kPa, x1 = 0.7033	0.36	0.343	0.33
101.33 kPa, x1 = 0.8037	0.355	0.336	0.322
101.33 kPa, x1 = 0.8416	0.353	0.333	0.319

CC(=O)CC(C)=O + CCC(C)(C)O
298.15 K, 101 kPa
Details	viscosity [mPa·s]
x1 = 0.1	2.481
x1 = 0.2	1.809
x1 = 0.3	1.39
x1 = 0.4	1.138
x1 = 0.5	0.987
x1 = 0.6	0.893
x1 = 0.7	0.827
x1 = 0.8	0.776
x1 = 0.9	0.733

CN(C)c1ccccc1 + CC(=O)CC(C)C
viscosity [mPa·s], 101 kPa
Details	303.15 K	308.15 K
x1 = 0.0745	0.632	0.557
x1 = 0.1256	0.711	0.628
x1 = 0.1856	0.8	0.711
x1 = 0.2652	0.906	0.813
x1 = 0.3202	0.971	0.875
x1 = 0.4012	1.052	0.953
x1 = 0.4852	1.108	1.013
x1 = 0.5612	1.143	1.049
x1 = 0.6504	1.165	1.072
x1 = 0.7214	1.167	1.079
x1 = 0.7958	1.168	1.079
x1 = 0.8625	1.169	1.081
x1 = 0.9125	1.17	1.086

CC(=O)CC(C)=O + CCCC(C)O
298.15 K, 101 kPa
Details	viscosity [mPa·s]
x1 = 0.1	2.324
x1 = 0.2	1.65
x1 = 0.3	1.276
x1 = 0.4	1.082
x1 = 0.5	0.983
x1 = 0.6	0.918
x1 = 0.7	0.855
x1 = 0.8	0.787
x1 = 0.9	0.725

CN(C)c1ccccc1 + CC(C)O
303.15 K, 101 kPa
Details	viscosity [mPa·s]
x1 = 0.0564	1.727
x1 = 0.1136	1.655
x1 = 0.1989	1.56
x1 = 0.2689	1.492
x1 = 0.3245	1.439
x1 = 0.3767	1.401
x1 = 0.4258	1.369
x1 = 0.4878	1.33
x1 = 0.5655	1.288
x1 = 0.6305	1.259
x1 = 0.7385	1.22
x1 = 0.8187	1.199
x1 = 0.9243	1.18
